According to the NIST ThermoML archive (doi:10.1021/acs.jced.8b00521):
Numbers after ± are expanded uncertainties.

Experiment: xn = mol fraction of the nth substance listed
Conditions: Liquid; for viscosity: Capillary tube (Ostwald / Ubbelohde) method; for mass density: Vibrating tube method

CCCCCCCC(=O)OCC [ethyl octanoate] + CCCCCCCCCCCC(=O)OC
Conditions	mass density, 313.15 K [kg/m3]	mass density, 323.15 K [kg/m3]	viscosity, 313.15 K [mPa·s]	viscosity, 323.15 K [mPa·s]
100 kPa, x2 = 0.1	–	841 ± 2	–	1.03 ± 0.03
100 kPa, x2 = 0.1999	–	842 ± 2	–	1.09 ± 0.03
100 kPa, x2 = 0.3001	–	842 ± 2	–	1.13 ± 0.04
100 kPa, x2 = 0.4	–	843 ± 2	–	1.19 ± 0.04
100 kPa, x2 = 0.4999	–	843 ± 2	–	1.26 ± 0.04
100 kPa, x2 = 0.6001	–	843 ± 2	–	1.33 ± 0.04
100 kPa, x2 = 0.6999	–	844 ± 2	–	1.42 ± 0.04
100 kPa, x2 = 0.8001	–	844 ± 2	–	1.51 ± 0.05
100 kPa, x2 = 0.9	–	844 ± 2	–	1.61 ± 0.05
2930 kPa, x2 = 0.1	–	843 ± 2	–	1.04 ± 0.03
2930 kPa, x2 = 0.1999	–	843 ± 2	–	1.11 ± 0.03
2940 kPa, x2 = 0.3001	–	844 ± 2	–	1.18 ± 0.04
2960 kPa, x2 = 0.6999	–	845 ± 2	–	1.45 ± 0.05
2980 kPa, x2 = 0.6001	–	845 ± 2	–	1.38 ± 0.04
3010 kPa, x2 = 0.4999	–	844 ± 2	–	1.31 ± 0.04
3020 kPa, x2 = 0.4	–	844 ± 2	–	1.24 ± 0.04
3020 kPa, x2 = 0.9	–	846 ± 2	–	1.65 ± 0.05
3040 kPa, x2 = 0.8001	–	846 ± 2	–	1.57 ± 0.05
6010 kPa, x2 = 0.8001	–	848 ± 2	–	1.61 ± 0.05
6020 kPa, x2 = 0.3001	–	845 ± 2	–	1.22 ± 0.04
6030 kPa, x2 = 0.4999	–	846 ± 2	–	1.35 ± 0.04
6030 kPa, x2 = 0.6999	–	847 ± 2	–	1.5 ± 0.05
6040 kPa, x2 = 0.6001	–	847 ± 2	–	1.42 ± 0.04
6060 kPa, x2 = 0.1	–	844 ± 2	–	1.08 ± 0.03
6060 kPa, x2 = 0.1999	–	845 ± 2	–	1.15 ± 0.04
6080 kPa, x2 = 0.4	–	846 ± 2	–	1.29 ± 0.04
6080 kPa, x2 = 0.9	–	849 ± 2	–	1.7 ± 0.05
8900 kPa, x2 = 0.1	855 ± 2	–	1.33 ± 0.04	–
8900 kPa, x2 = 0.1999	855 ± 2	–	1.42 ± 0.04	–
8930 kPa, x2 = 0.6999	–	849 ± 2	–	1.56 ± 0.05
8960 kPa, x2 = 0.6999	858 ± 2	–	1.93 ± 0.06	–
8980 kPa, x2 = 0.8001	–	850 ± 2	–	1.67 ± 0.05
8980 kPa, x2 = 0.9	–	850 ± 2	–	1.75 ± 0.05
9000 kPa, x2 = 0.6001	857 ± 2	–	1.81 ± 0.06	–
9010 kPa, x2 = 0.4	856 ± 2	–	1.59 ± 0.05	–
9010 kPa, x2 = 0.9	859 ± 2	–	2.15 ± 0.07	–
9030 kPa, x2 = 0.3001	855 ± 2	–	1.52 ± 0.05	–
9030 kPa, x2 = 0.6001	–	849 ± 2	–	1.46 ± 0.05
9030 kPa, x2 = 0.8001	858 ± 2	–	2.06 ± 0.06	–
9040 kPa, x2 = 0.1	–	846 ± 2	–	1.11 ± 0.03
9050 kPa, x2 = 0.4999	857 ± 2	–	1.7 ± 0.05	–
9070 kPa, x2 = 0.3001	–	847 ± 2	–	1.26 ± 0.04
9070 kPa, x2 = 0.4999	–	848 ± 2	–	1.39 ± 0.04
9090 kPa, x2 = 0.4	–	847 ± 2	–	1.32 ± 0.04
9140 kPa, x2 = 0.1999	–	847 ± 2	–	1.19 ± 0.04
11900 kPa, x2 = 0.4	–	849 ± 2	–	1.36 ± 0.04
11910 kPa, x2 = 0.6001	859 ± 2	–	1.87 ± 0.06	–
11950 kPa, x2 = 0.4	858 ± 2	–	1.63 ± 0.05	–
11960 kPa, x2 = 0.6001	–	850 ± 2	–	1.5 ± 0.05
11970 kPa, x2 = 0.4999	–	850 ± 2	–	1.43 ± 0.04
11980 kPa, x2 = 0.3001	857 ± 2	–	1.57 ± 0.05	–
11990 kPa, x2 = 0.3001	–	849 ± 2	–	1.29 ± 0.04
11990 kPa, x2 = 0.8001	–	852 ± 2	–	1.72 ± 0.05
12000 kPa, x2 = 0.9	–	852 ± 2	–	1.79 ± 0.06
12010 kPa, x2 = 0.1	856 ± 2	–	1.37 ± 0.04	–
12010 kPa, x2 = 0.1999	856 ± 2	–	1.47 ± 0.05	–
12010 kPa, x2 = 0.8001	860 ± 2	–	2.11 ± 0.07	–
12020 kPa, x2 = 0.1	–	847 ± 2	–	1.14 ± 0.04
12020 kPa, x2 = 0.1999	–	848 ± 2	–	1.22 ± 0.04
12020 kPa, x2 = 0.4999	858 ± 2	–	1.74 ± 0.05	–
12060 kPa, x2 = 0.6999	–	851 ± 2	–	1.6 ± 0.05
12070 kPa, x2 = 0.9	860 ± 2	–	2.22 ± 0.07	–
12090 kPa, x2 = 0.6999	860 ± 2	–	1.99 ± 0.06	–
14960 kPa, x2 = 0.6001	–	852 ± 2	–	1.55 ± 0.05
14960 kPa, x2 = 0.9	–	854 ± 2	–	1.85 ± 0.06
14970 kPa, x2 = 0.8001	862 ± 2	853 ± 2	2.16 ± 0.07	1.76 ± 0.05
14980 kPa, x2 = 0.6999	861 ± 2	853 ± 2	2.03 ± 0.06	1.65 ± 0.05
14990 kPa, x2 = 0.1	–	849 ± 2	–	1.18 ± 0.04
14990 kPa, x2 = 0.1999	–	850 ± 2	–	1.26 ± 0.04
15010 kPa, x2 = 0.4	–	851 ± 2	–	1.4 ± 0.04
15010 kPa, x2 = 0.6001	861 ± 2	–	1.92 ± 0.06	–
15020 kPa, x2 = 0.3001	859 ± 2	850 ± 2	1.62 ± 0.05	1.33 ± 0.04
15040 kPa, x2 = 0.4999	860 ± 2	851 ± 2	1.79 ± 0.06	1.48 ± 0.05
15050 kPa, x2 = 0.1	858 ± 2	–	1.41 ± 0.04	–
15050 kPa, x2 = 0.1999	858 ± 2	–	1.51 ± 0.05	–
15050 kPa, x2 = 0.9	862 ± 2	–	2.28 ± 0.07	–
15090 kPa, x2 = 0.4	859 ± 2	–	1.69 ± 0.05	–
